Laboratory results taken from US7521540B2, “CYR61 compositions and methods” (Munin Corporation, priority 1996, dated 2009).

Assays:
[1] = system: 1064SK primary human foreskin fibroblasts; test: Fibroblast adhesion assay (methylene blue, A620); type: cell-based; conditions: for 1064SK adhesion to Cyr61-coated wells with agent: Cyr61 2 μg/ml, agent at the level stated in the block, Mg2+ 5.0 mM after EDTA; for 1064SK adhesion to Type I collagen-coated wells with agent: Type I collagen 2 μg/ml; for 1064SK adhesion to vitronectin-coated wells with agent: vitronectin 0.5 μg/ml; for concentration that inhibited cell adhesion to Cyr61: in cell suspension
Method: The ability of Cyr61 to mediate cell adhesion in normal fibroblasts was investigated. Microtiter wells were coated with purified recombinant Cyr61 protein, and 1064SK primary human foreskin fibroblasts were allowed to adhere under serum-free conditions. […] 50 μl cell suspensions were plated on microtiter wells coated with varying concentrations (0.5-5.0 μg/ml) of Cyr61 protein. After incubation at 37° C. for 30 minutes, adherent cells were fixed and stained with methylene blue.
In another experiment, microtiter wells were coated with either BSA, Cyr61 (2 μg/ml), or vitronectin (VN; 0.5 μg/ml) and blocked with affinity-purified anti-Cyr61 antibodies for one hour at 37° C. before 1064SK cells were plated.
The effects of divalent cations in cell adhesion to Cyr61 was also investigated. […] Data are means from triplicate determinations. […] Inhibition by Ca^2+ is characteristic of adhesion through some members of the β1 family of integrins, including receptors that bind type I collagen, laminin, and vitronectin (integrins α2β1, α6β1, and αVβ1) in fibroblasts, as well as the lymphocyte-specific integrin αLβ2.
The effects of RGD peptides on Cyr61-mediated fibroblast binding was tested by plating cells in wells coated with Cyr61 (2 μg/ml). Type I collagen (2 μg/ml) or vitronectin (0.5 μg/ml), 2 mM GRGDSP or GRGESP peptide was then added.
Cells were also pre-incubated with 40 μg/ml monoclonal antibodies against the integrin α5 or the integrin αV subunits at room temperature for 30 minutes, then plated on wells coated with Cyr61 (2 μg/ml), vitronectin (0.5 μg/ml) or fibronectin (FN, 1 μg/ml). […] The data are means, representative of three experiments.
The 1064 SK cells were also analyzed using the monoclonal antibody JBIA, which binds the β1 integrin subunit. Cells were pre-incubated with the antibody (50 μg/ml) before plating on microtiter wells coated with Cyr61 (2 μg/ml), Type I collagen (2 μg/ml), or vitronectin (0.5 μg/ml). […] Data are means, representative of three experiments.
To identify the specific β1 integrin that mediates fibroblast adhesion to Cyr61, the inhibitory effects of function-blocking monoclonal antibodies were tested against various integrin α subunits. […] The data are means, representative of at least three experiments.

HUVE cells = test: HUVE cell attachment to murine Cyr61-coated plates; type: cell-based, human; conditions: Cyr61-coated surfaces
Method: Another embodiment of the invention is directed to the use of Cyr61 to mediate cellular attachment to the extracellular matrix. Induction of cellular adhesion was investigated using murine Cyr61, fibronectin, and bovine serum albumin (BSA). Immunological 96-well plates (Falcon brand) were coated with 50 μl of 0.1% BSA in PBS at 4° C. in the presence of 0-30 μg/ml concentrations of murine Cyr61 or fibronectin. After two hours exposure to the coating solution, non-diluted immune or pre-immune antisera (30 μl/well), or affinity-purified anti-Cyr61 antibodies were added. For some wells, the coating mixture was adjusted to 10 mM DTT or 100 mM HCl. After 16 hours incubation, the coating solution was removed and the well surface was blocked with 1% BSA in phosphate-buffered saline (PBS) for 1 hour at room temperature. HUVE cells were plated in Ham's complete F12K medium [GIBCO-BRL, Inc.; Ham, Proc. Natl. Acacd. Sci. (USA) 53:786 (1965)] at 5×10^3-10^4 cells/well. Cycloheximide was added to 100 μg/ml immediately before plating and monensin was added to 1 μM 14 hours before plating. After a 2-hour incubation at 37° C., the wells were washed with PBS and attached cells were fixed and stained with methylene blue. The attachment efficiency was determined by quantitative dye extraction and measurement of the extract absorbance at 650 nm. Oliver et al., J. Cell. Sci. 92:513-518 (1989).

platelets = test: Platelet adhesion assay; type: cell-based, human
Method: Microtiter wells were coated with purified recombinant Fisp12/mCTGF or Cyr61, and the adhesion of isolated platelets to these proteins was detected with ^125I-mAb15, an anti-β3 monoclonal antibody (Frelinger et al., J. Biol. Chem 265:6346-6352 [1990]). Platelets were obtained from venous blood drawn from healthy donors and collected into acid-citrate-dextrose (ACD). Washed platelets were prepared by diffenential centrifugation as described (Kinlough-Rathbone et al. Thromb. Haemostas 2:291-308 [1997]), and finally resuspended in HEPES-Tyrode's buffer (5 mM HEPES, pH 7.35, 1 mM MgCl2, 1 mM CaCl2, 135 mM NaCl, 2.7 mM KCl, 11.9 mM NaHCO3, 1 mg/ml dextrose and 3.5 mg/ml BSA). The platelet concentration was adjusted to […].
Microtiter wells (Immulon 2 removawell strips, Dynex Technologies, Inc.) were coated with Cyr61, Fisp12/mCTGF, or fibrinogen (25 μg/ml, 50 μl/well) incubated overnight at 22° C., and then blocked with 3% BSA at 37° C. for 2 hours. Washed platelets were added to the wells (100 μl/well) in the presence and absence of platelet agonists and incubated at 37° C. for 30 minutes. The wells were washed with HEPES-Tyrode's buffer and adherent platelets were detected with ^125I-mAb15, an anti-β3 monoclonal antibody. Exposure to the labeled antibody ([…], 50 μl/well) proceeded for 1 hour at 22° C. After extensive washing with HEPES-Tyrode's buffer, bound radioactivity was determined by γ-counting. In inhibition studies, washed platelets were pre-incubated with blocking peptides or antibodies at 37° C. for 15 minutes prior to addition to microtiter wells.
The anti-β3 antibody was radioiodinated with carrier-free Na^125I (Amersham Corp.) using the IODO-BEADS iodination reagent (Pierce) to a specific activity of approximately 2 μCi/μg. […] As controls, BSA- and fibrinogen-coated (KabiVitrum Inc.) wells were also used. Initially, the adhesion of unactivated versus activated platelets to immobilized Fisp12/mCTGF and Cyr61 was compared. To ensure that plateltes were not activated during the washing procedures, PGl2 (100 nM), which inhibits activation by raising platelet cAMP levels, was added to the platelet suspensions. […]

[2] = system: Human Microvascular Endothelial Cells; test: In vitro migration assay for angiogenesis inhibitors; type: cell-based; conditions: for migrating cells per set of three high-powered fields, Cyr61 plus compound: Cyr61 1 μg/ml plus 10 mM compound
Method: As in the preceding Example, human microvascular endothelial cells (Clonetics) were used. In one series of assays, several carbohydrates and carbohydrate derivatives were analyzed. These compounds included 10 mM mannose, 10 mM mannose-6-phosphate, and 10 mM galactose. […] Cyr61 plus galactose induced the migration of approximately 74 cells per set of three high-powered fields. […] The angiogenic activity of basic FGF (10 ng/ml) was also tested, as described above, with and without mannose-6-phosphate. In the presence of 10 mM mannose-6-phosphate, bFGF induced 51 cells per set of three high-powered fields to migrate; in its absence, bFGF induced the migration of approximately 52 cells. […] The effect of mannose-6-phosphate on IGF II activity was anticipated because mannose-6-phosphate is known to compete with IGF II for their common receptor (the IGF II receptor). […] Moreover, because there is an essentially perfect correlation between the in vitro migration assay and the in vivo angiogenesis assay, described below, mannose-6-phosphate has been identified as an inhibitor of angiogenesis based on the results of the assay disclosed herein. Accordingly, the invention contemplates a method of inhibiting angiogenesis comprising the step of administering an inhibitor the angiogenic activity of Cyr61 such as mannose-6-phosphate. Assays such as that described above may also be used to screen for other inhibitors of angiogenesis which may be useful in the treatment of diseases associated with angiogenesis such as cancer, and diseases of the eye which are accompanied by neovascularization.

[Ca+2] [Ca^2+]
effect of agent on fibroblast adhesion to Cyr61 [1]: abolished cell adhesion to Cyr61 competely

O=C(O)CN(CCOCCOCCN(CC(=O)O)CC(=O)O)CC(=O)O [EGTA]
effect of agent on HUVE cell adhesion to Cyr61 (HUVE cells): completely abolished

O=S(=O)([O-])[O-].[Mg+2] [MgSO4, magnesium sulfate]
effect of agent on fibroblast adhesion to Cyr61 [1]: resuced

[Mg+2] [Mg^2+]
effect of agent on fibroblast adhesion to Cyr61 [1]: had no effect | 1064SK adhesion to Cyr61-coated wells with agent [1]: 0.50 A620 | 1064SK adhesion to Type I collagen-coated wells with agent [1]: 0.58 A620 | 1064SK adhesion to vitronectin-coated wells with agent [1]: 0.55 A620

[Mn+2] [Mn^2+]
effect of agent on fibroblast adhesion to Cyr61 [1]: had no effect

CCCCC[C@H](O)/C=C/[C@@H]1[C@H]2C/C(=C/CCCC(=O)O)O[C@H]2C[C@H]1O [PGl2]
effect of agent on activated platelet adhesion to Cyr61 and Fisp12/mCTGF (platelets): significantly inhibited

C[C@@H]1C[C@@H]([C@H](O)CC2CC(=O)NC(=O)C2)C(=O)[C@@H](C)C1 [cycloheximide]
effect of agent on HUVE cell adhesion to Cyr61 (HUVE cells): insensitive

O=C[C@H](O)[C@@H](O)[C@@H](O)[C@H](O)CO [galactose]
migrating cells per set of three high-powered fields, Cyr61 plus compound [2]: approximately 74 cells

O=C[C@@H](O)[C@@H](O)[C@H](O)[C@H](O)COP(=O)(O)O [mannose-6-phosphate]
migrating cells induced by Cyr61 in presence of compound [2]: approximately 12 cells | migrating cells induced by IGF-II in presence of compound [2]: ~11 cells | migrating cells per set of three high-powered fields, Cyr61 plus compound [2]: approximately 2 cells | migrating cells induced by bFGF in presence of compound ([2]; bFGF 10 ng/ml, 10 mM compound): 51 cells

CC[C@@]1([C@@H]2O[C@@H]([C@H]3O[C@@](O)(CO)[C@H](C)C[C@@H]3C)C[C@@H]2C)CC[C@H]([C@]2(C)CC[C@]3(C[C@H](O)[C@@H](C)[C@@H]([C@@H](C)[C@@H](OC)[C@H](C)C(=O)O)O3)O2)O1 [monensin]
effect of agent on HUVE cell adhesion to Cyr61 (HUVE cells): insensitive

[Na+].[O-][Cl+2]([O-])[O-] [sodium chlorate]
inhibition of cell adhesion to other substrates ([1]; 40 mM, fibronectin, type I collagen, vitronectin, laminin): 10-20% | inhibition of cell adhesion to Cyr61 ([1]; sodium chlorate 40 mM): 90%

Chondroitin sulfate A [chondroitin A]
concentration that inhibited cell adhesion to Cyr61 [1]: 1000 µg/mL

Chondroitin sulfate B (Dermatan sulfate) [chondroitin B]
concentration that inhibited cell adhesion to Cyr61 [1]: 10 µg/mL

Chondroitin sulfate C [chondroitin C]
inhibition of adhesion to Cyr61 ([1]; 0.01-1000 μg/ml): failed to inhibit adhesion to Cyr61 at all concentrations tested

GRGDSP
1064SK adhesion to Cyr61-coated wells with agent [1]: ~0.48 A620 | 1064SK adhesion to Type I collagen-coated wells with agent [1]: 0.47 A620 | 1064SK adhesion to vitronectin-coated wells with agent [1]: 0.05 A620 | effect of agent on activated platelet adhesion to Cyr61 and Fisp12/mCTGF (platelets): specifically inhibited

GRGESP
1064SK adhesion to Cyr61-coated wells with agent [1]: ~0.46 A620 | 1064SK adhesion to Type I collagen-coated wells with agent [1]: 0.49 A620 | 1064SK adhesion to vitronectin-coated wells with agent [1]: 0.41 A620

IGF-II: Insulin Growth Factor II
migrating cells, chemoattractant without mannose-6-phosphate ([2]; bFGF 10 ng/ml, Cyr61, IGF-II): ~47 cells

RGES [reference compound]
effect of agent on adhesion of ADP-activated platelets to fibrinogen (platelets): not by RGES or LM609

chondroitinase A, B, C
1064SK adhesion to Cyr61-coated wells with agent [1]: 0.57 A620 | 1064SK adhesion to fibronectin-coated wells with agent ([1]; fibronectin 1 μg/ml): 0.65 A620 | 1064SK adhesion to vitronectin-coated wells with agent [1]: 0.69 A620

heparan sulfate
concentration that inhibited cell adhesion to Cyr61 [1]: 0.1 µg/mL

laminin
1064SK adhesion to coated protein, nothing added ([1]; Cyr61 2, VN 0.5, Type I collagen 2, fibronectin 1, laminin 5 μg/ml): 0.62 A620
